From PubChem BioAssay AID179 (DTP/NCI, 2004)
Calls of active or inactive are those of the source.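 How the source made its calls: active means compounds giving half or more protection of infected cells from virus-caused growth loss, again on retest; inactive means the rest.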 Where a SMILES comes first, the peptide text is derived from it. The star is where a group is joined. Boc = CC(C)(C)OC(=O)*; OBn = c1ccc(CO*)cc1

System: CEM cells HIV-1 protection, formazan growth assay
Test: NCI AIDS Antiviral Assay
Details: for IC50: measured here: growth of uninfected CEM cells
Method in brief: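 Human CEM cells, uninfected and HIV-1-infected, received five drug concentrations, and growth was read by soluble formazan assay. Compounds giving at least 50% protection were retested; reproducible 100% protection defined confirmed active.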

Row | Structure (SMILES) | EC50 | IC50 | outcome
1 | Cc1sc2nc3n(c(=O)c2c1C)N=CN(c1ccc(Cl)cc1)C3 | 9.33 µM | 50.1 µM | 
2 | Cc1cc(O)cc2oc(=O)c3c(O)cc(O)cc3c12 | > 479 µM | 12.6 µM | 
3 | O=S1(=O)OCCOS(=O)(=O)C1Br | > 891 µM | 331 µM | 
4 | O=C1NC2(CCCCC2)C2=C1CCCCC2 |  |  | inactive
5 | CCC[CH2][Sn]1([CH2]CCC)[O]C(=O)c2cccc(C)c2[O]1 |  |  | inactive
6 | O=c1[nH]c(=O)n(COCCOCc2ccccc2)cc1Nc1ccccc1 | > 200 µM | 56.2 µM | 
7 | COC1=C(C(=O)OC(C)(C)C)C2C(C(=O)OC(C)(C)C)C(OC)=C(C(=O)OC(C)(C)C)C2C1C(=O)OC(C)(C)C (stereo not drawn) | > 31.6 µM | 17 µM | 
8 | C=CCOCC1C2CCC3(OCCO3)C21 (stereo not drawn) | > 200 µM | 148 µM | 
9 | C[n+]1cc(C(O)c2ccc3c(c2)OCO3)c2ccccc2c1 (stereo not drawn) | > 100 µM | 29.5 µM | 
10 | CC(=C\c1ccccc1)/C=C1/NC(=O)NC1=O | > 200 µM | 129 µM | 
11 | C=C1c2nc3ccccc3n2C=C(c2ccccc2)N1c1ccc(Cl)cc1 | > 200 µM | 32.4 µM | 
12 | Cc1cc2c(cc1Cl)SC(NNC(=O)c1ccccc1)=NS2(=O)=O | 123 µM | 132 µM | 
13 | CC(C)N(C(=O)c1ccc(NCc2cc(O)ccc2O)cc1)C(C)C | > 200 µM | 12.6 µM | 
14 | C/C(N=NC(=S)N1CC2CCC(CC2)C1)=C1\C=CC=CN1O | > 158 µM | 1.86 µM | 
15 | COC(=O)C1=C(C(=O)OC)C(N(C)C)C(C(=O)OC)=C(C(=O)OC)S1 | > 200 µM | > 200 µM | 
16 | CCOC(=O)CSc1nc(-c2ccccc2)c(C#N)c(=O)[nH]1 |  |  | inactive
17 | O=c1ccn([C@@H]2C=C(CO)[C@@H](O)[C@H]2O)c(=O)[nH]1 | > 200 µM | > 200 µM | 
18 | c1ccc2c(c1)CCCN1CCc3ccccc3C21 (stereo not drawn) | > 200 µM | 51.3 µM | 
19 | Cc1ccc(S(=O)(=O)N2CC(O)C=Cc3ccccc32)cc1 (stereo not drawn) | > 200 µM | 3.16 µM | 
20 | Brc1ccc(N2N=NC3CNCC32)cc1 (stereo not drawn) | > 26.9 µM | > 26.9 µM | 
21 | CCCCCCCCCC1CC(=O)OC2=C1C(=O)CCC2 (stereo not drawn) | > 46.8 µM | > 46.8 µM | 
22 | Fc1ccc(C2(CCCN3CCc4[nH]c5cc(F)ccc5c4C3)OCCO2)cc1 | > 200 µM | 18.6 µM | 

Row | Structure (SMILES) | EC50 | IC50 | outcome
23 | CCN(C)N=Nc1ccc(C(N)=O)cc1 | > 1200 µM | 617 µM | 
24 | CC1=CC(=O)c2cccc(NC3=NCCO3)c21 | > 200 µM | 72.4 µM | 
25 | [O-]/[N+](=C\c1ccccc1)[C@H](COCc1ccccc1)c1ccccc1 | > 77.6 µM | > 77.6 µM | 
26 | NCCCNCCCCNCCCNCc1c2ccccc2c(CNCCCNCCCCNCCCN)c2ccccc12 | > 1820 µM | 3.8 µM | 
27 | O=C1c2cccc3cc([N+](=O)[O-])cc(c23)C(=O)N1c1ccc(OCCN2CCCC2)cc1 | > 200 µM | 5.62 µM | 
28 | [Cl][Ni].[NH-]C(Cc1c[nH]cn1)C(=O)O (stereo not drawn) | > 100 µM | > 100 µM | 
29 | N#CC(C#N)=Cc1ccc2c(c1)OC(Cl)O2 (stereo not drawn) |  |  | inactive
30 | COc1cccc(N2C(=O)C3c4[nH]c5ccccc5c4C4c5ccccc5CCC4C3C2=O)c1 (stereo not drawn) | > 100 µM | > 100 µM | 
31 | CSc1nncc2[nH]c(C)nc12 | > 200 µM | > 200 µM | 
32 | COc1cc2c(cc1C)n(O)c(C)c(C(=O)C/C(=N/NC(=O)C[N+](C)(C)C)C(=O)Nc1cccc(Cl)c1C)[n+]2=O | > 12 µM | > 12 µM | 
33 | O=C1Nc2ccccc2S/C1=C/c1ccccc1 | > 20.4 µM | > 20.4 µM | 
34 | CCCCC[C@@H]1CCC[C@H]2NC(CCCCC3OCCO3)CC[C@@H]12 (stereo partly drawn) |  |  | inactive
35 | O=S(=O)(O)SCCCNCCCNCCCSS(=O)(=O)O | > 200 µM | 13.8 µM | 
36 | C=CCNC(=O)N(CCCCC(NC(C)=O)C(=O)NCc1ccccc1)Cc1ccccc1 (stereo not drawn) | > 550 µM | 372 µM | 
37 | CCCc1cc(=O)oc2c3c(cc(OCC)c12)O[C@H](C)[C@@H](C)C3=O | > 200 µM | 8.32 µM | 
38 | O=C(CC(=O)C1CCOC1=O)C(=O)Nc1ccc(Cl)cc1Cl (stereo not drawn) |  |  | inactive
39 | CCOC(=O)CN1C(=O)S/C(=C2\C(=O)N(C)c3ccccc32)C1=O | > 200 µM | > 200 µM | 
40 | Brc1ccc(N=c2nc3ccccn3n3nc(-c4ccccc4)cc23)cc1 | > 24 µM | > 24 µM | 
41 | Clc1nc(Cl)nc(NC23CC4CC(CC(C4)C2)C3)n1 | > 200 µM | 107 µM | 
42 | CC(=O)CCCCCCCCCCCC[C@@H]1CC[C@H](C)[C@H](O)N1 | > 21.9 µM | > 21.9 µM | 
43 | Cn1c(=O)n2n(c1=O)[C@@H](c1ccccc1)[C@H]2c1ccccc1 | > 200 µM | 91.2 µM | 
44 | Cn1c(-c2ccccc2)cc(-c2ccsc2)c1-c1ccsc1 | > 200 µM | 158 µM | 

Row | Structure (SMILES) | EC50 | IC50 | outcome
45 | O=C(/C=C/c1ccc(Cl)cc1)c1ccccc1 | > 56.2 µM | 11.2 µM | 
46 | CC(C)=CCC1(c2ccccc2)Oc2cccnc2-n2cccc2C1=O (stereo not drawn) | > 200 µM | 28.8 µM | 
47 | COC1=NC2=CC(=O)c3c(c(OC(C)=O)c(C)c4c3C(=O)C(C)(O/C=C/C(OC)C(C)C(OC(C)=O)C(C)C(O)C(C)C(OC(C)=O)C(C)/C=C/C=C\1C)O4)C2=O (stereo not drawn) | > 200 µM | 16.6 µM | 
48 | CCOP(=O)(OCC)C(C)(CC)NC(=O)C(C(F)(F)F)C(F)(F)F (stereo not drawn) | > 200 µM | 105 µM | inactive
49 | O=C(NCCCCCCCCNC(=O)c1cnc2ccccc2n1)c1cnc2ccccc2n1 | > 398 µM | 56.2 µM | 
50 | O=C(NCCCCCCCN1CCCCCC1)C1c2ccccc2-c2ccccc21 | > 200 µM | 39.8 µM | 
51 | O=C(NC(=O)c1ccccc1O)c1ccccc1 | > 282 µM | > 282 µM | 
52 | Cc1ccc(Nc2nc3c(s2)C(=O)c2ccccc2C3=O)c(C)c1 | > 30.2 µM | 15.8 µM | 
53 | CC1=C(C)CC(C#N)(C#N)C(C#N)(C#N)C1 | > 200 µM | 19.1 µM | 
54 | C1CN2CCOB(O1)OCC2 | > 200 µM | > 200 µM | 
55 | COC(=O)c1[nH]c(=S)[nH]c(=O)c1-c1ccc(Cl)cc1 | 251 µM | 603 µM | 
56 | Clc1ccc(OCc2nnc3n2N=C(c2ccccc2)CS3)c(Cl)c1 |  |  | inactive
57 | CCN(CC)C(=O)C1=C(C)NC(C)=C(C(=O)N(CC)CC)C1 | > 200 µM | 61.7 µM | 
58 | CC(C)NCCCNc1c2ccccc2nc2cccc([N+](=O)[O-])c12 | > 0.2 µM | 0.0316 µM | 
59 | CC1(O)C2(c3ccccc3)CCC[N+]1(C)CC2 (stereo not drawn) |  |  | inactive
60 | COc1cc(/C=C2/SC(c3ccccc3)N(c3cccc([N+](=O)[O-])c3)C2=O)cc(OC)c1OC (stereo not drawn) | > 200 µM | 107 µM | 
61 | C1=Nc2ccc(cc2)-c2ccc(cc2)N=Cc2ccccc2OCc2cccc(n2)COc2ccccc21 | > 200 µM | > 200 µM | 
62 | Clc1ccc(-n2nnc(C3=NCCCN3)c2-c2ccccc2)cc1 | 129 µM | 148 µM | 
63 | CC1(C)C[C@@H]2C1CCC1(C)CC2(O)CC[C@H]1O (stereo partly drawn) | > 200 µM | > 200 µM | 
64 | COc1ccc(C2c3cc4c(cc3OC(N3CCCCC3)C2C)OCO4)cc1 (stereo not drawn) | > 200 µM | > 200 µM | 
65 | O=C(/C=C/c1cccs1)c1ccc(Cl)s1 |  |  | inactive
66 | C[n+]1c2ccccc2c(CNC(CS)C(=O)O)c2ccccc21 (stereo not drawn) |  |  | inactive

Row | Structure (SMILES) | EC50 | IC50 | outcome
67 | CC(=O)OCC1OC(n2c(-c3ccc(C)cc3)cc(-c3ccccc3)c(C#N)c2=S)C(OC(C)=O)C(OC(C)=O)C1OC(C)=O (stereo not drawn) | > 200 µM | 67.6 µM | 
68 | CC(=O)OC1(C#N)CC2OC1C1C2N1C(=O)c1ccccc1 (stereo not drawn) | > 316 µM | > 316 µM | 
69 | O=C(O)c1ccccc1S(=O)O | > 200 µM | > 200 µM | 
70 | CSc1c(C#N)c(S)[nH]c(=O)c1C#N | 83.2 µM | 126 µM | 
71 | NCCN1C(=O)C2C3c4ccccc4C(c4ccccc43)C2C1=O (stereo not drawn) |  |  | inactive
72 | N#CN=CN1CCN(c2ccccn2)CC1 | > 537 µM | > 537 µM | 
73 | COc1ccc(-c2c3c(nc4[nH]c(=S)[nH]c(=S)c24)CCCC3)cc1OC | > 200 µM | 49 µM | 
74 | CC(C)CCCC(C)[C@H]1CC[C@H]2[C@@H]3CC[C@H]4C[C@@H](CCC=C(c5cc(Cl)c(OCc6ccccc6B6OC(C)(C)C(C)(C)O6)c(C(=O)OCc6ccccc6B6OC(C)(C)C(C)(C)O6)c5)c5cc(Cl)c(OCc6ccccc6B6OC(C)(C)C(C)(C)O6)c(C(=O)OCc6ccccc6B6OC(C)(C)C(C)(C)O6)c5)CC[C@]4(C)[C@H]3CC[C@]12C (stereo partly drawn) | > 126 µM | > 126 µM | 
75 | CC1=NN2C(=O)C(C)SC2=NC(C)(C)C1 (stereo not drawn) | > 1120 µM | > 1120 µM | 
76 | Clc1ccc(N=C/C=C/Nc2ccc(Cl)cn2)nc1 | > 200 µM | 13.8 µM | 
77 | Nc1c(-c2cccc3ccccc23)c2ccc([N+](=O)[O-])cc2c(=O)n1-c1nc2ccccc2s1 | > 50.1 µM | 0.676 µM | 
78 | Cc1nc2ccccc2c(=O)n1Cc1nc2ccccc2[nH]1 |  |  | inactive
79 | CCOC(=O)NC(OCc1ccccc1)(C(=O)OC)C(F)(F)F (stereo not drawn) | > 200 µM | > 200 µM | 
80 | CCCCCCCCCCCCCCCCCCn1[se]c2ccccc2c1=O | > 3.24 µM | > 3.24 µM | 
81 | Cc1cn(C2CC(O[Si](C)(C)C(C)(C)C)C(CNC(=O)N(O)C3CC(n4cc(C)c(=O)[nH]c4=O)OC3CO[Si](C)(C)C(C)(C)C)O2)c(=O)[nH]c1=O (stereo not drawn) | > 200 µM | 2.09 µM | 
82 | CC(=O)C(C)(CCC(=O)O)CCC(=O)O | > 955 µM | > 955 µM | 
83 | Cc1cc(-c2ccco2)oc(=O)c1NC(=O)c1ccccc1 | > 200 µM | 25.1 µM | 
84 | COc1ccc(C[C@H](N)C(=O)N2C[C@H](CO)C[C@H](n3ccc(=O)[nH]c3=O)C2)cc1 | > 617 µM | > 617 µM | 
85 | Cc1nc(-n2nc(-c3ccccc3)cc2-c2ccccc2)sc1C(/C=C\c1ccc([N+](=O)[O-])cc1)=N/NC(=S)NN | > 32.4 µM | > 32.4 µM | 
86 | CC(C)C(NC(=O)CNC(=O)C1CCCN1C(=O)C(NC(=O)OC(C)(C)C)C(C)C)C(=O)NCC(=O)OCc1ccccc1 (stereo not drawn) (Boc-VPGVG-OBn; configuration not given here) | > 200 µM | 117 µM | 
87 | O=C1c2c(ccc3c2CCC3)CC1Cc1ccc2c(c1)CCC2 (stereo not drawn) | > 200 µM | 35.5 µM | 
